We go through twelve compounds from US11400084B2 (BioTheryX, Inc., priority 2018, dated 2022).

Some results are limits rather than exact numbers.

Holding throughout (type): cell-based
One experiment addresses T1, IKAROS (Homo sapiens, UniProt Q13422+Q96SW2).
T1 construct: endogenous in cells; host or cells: MV-4-11
The experiment can be described thus: Western blot IKAROS degradation assay in MV-4-11 cells. The note with it: 6-8 hours. As for the experimental part: (§1) MV-4-11 cells were grown in RPMI 1640 media supplemented with 10% fetal bovine serum, streptomycin and penicillin.
(§2) Cells were cultured at approximately 10^6 cells per mL and incubated in DMSO or the indicated compound for 6-8 hours. Whole cell extracts were prepared using RIPA buffer according to manufacturer's protocol (Pierce). Briefly, 3×10^6 cells were washed once in PBS, the cell pellets were resuspended in RIPA buffer and allowed to incubate for 15 minutes on ice. Cells debris was removed by centrifugation and the cleared whole cell lysates were transferred to new tubes for further analysis.
(§3) For Western blot analysis, whole cell protein extracts were separated on 4-12% SDS-polyacrylamide gels, transferred to nitrocellulose and probed with the indicated primary antibodies. Membranes were subsequently washed and probed with the appropriate IRDye secondary antibodies (LI-COR). The signal was detected using the Odyssey Imaging System (LI-COR).
(§4) The following antibodies were used in these studies: Anti-eRF3/GSPT1: Abcam, ab126090 (Cambridge, Mass.); Anti-Ikaros: Abcam, ab191394 (Cambridge, Mass.); Anti-CK1α: Abcam, ab108296 (Cambridge, Mass.); β-actin (8H10D10) mouse monoclonal antibody: Cell Signaling Technology, #3700 (Danvers, Mass.); IRDye 680RD Goat anti-rabbit antibody: LI-COR, 926-68071 (Lincoln, Nebr.); IRDye 800CW Goat anti-mouse antibody: LI-COR, 926-32210 (Lincoln, Nebr.).
(§5) In each of Tables 1-3, the % degradation values are reported as “A”, “B”, “C”, or “D.” “A” represents a % degradation value of less than 25% (value<25%); “B” represents a % degradation value of equal to or more than 25% and less than 50% (25%≤value<50%); “C” represents a % degradation value of equal to or more than 50% and less than 75% (50%≤value<75%); and “D” represents a % degradation value of equal to or more than 75% (value≥75%).
A general note: In western blotting, separated proteins are transferred to a membrane and probed.

The target in a further experiment is T2, GSPT1 (Homo sapiens, UniProt P15170+Q96SW2).
T2 construct: whole cell protein extracts were separated on 4-12% SDS-polyacrylamide gels; endogenous in cells; host or cells: MV-4-11
The experiment can be described thus: Western blot GSPT1 degradation assay in MV-4-11 cells. The following applies: 1 μM, MV-4-11 cells, 6-8 hours. As for the experimental part: as §1, §2, §3, §4, §5

Another experiment has as its system IL-1β. The experiment can be described thus: IL-1β inhibition assay, LPS-induced PBMCs or CD14+ monocytes, Meso Scale. The note with it: 100 ng/mL LPS 18-24 h. The protocol:
(§6) Either frozen primary blood mononuclear cells (PBMCs) or frozen CD14+ mobilized peripheral blood monocytes were purchased from AllCells (PB003F, Normal Peripheral Blood MNC (Alameda, Calif.)). Cells were quick thawed, washed 1-time with RPMI-1640 (10% FBS/1% Pen-Strep) and plated in 96 well plates at 200,000 cells per well. Cells were pretreated with DMSO only or with the indicated compound for 1 h and then induced with 100 ng/mL lipopolysaccharide (LPS) for 18-24 h. The supernatant was analyzed for IL-1β, IL-6, and TNFα, using Meso Scale assay according to manufacturer's protocol. The negative control wells were treated with DMSO.

A further experiment has as its system TNFα. Nature of the experiment: TNF-α inhibition assay, LPS-induced PBMCs or CD14+ monocytes, Meso Scale. The note with it: 100 ng/mL LPS 18-24 h. The protocol:
as §6

For the next experiment, the system named is IL-2. Nature of the experiment: IL-2 fold-change assay, anti-CD3 stimulated PBMCs, Mesoscale. The note with it: Homo sapiens, PBMC, 24 h, fold difference from the DMSO control. The protocol: For the IL-2 analysis, 96 well plates were precoated with 1 μg/mL anti-human CD3 antibody (OKT3, eBioscience Inc., San Diego, Calif.). After washing with PBS, the indicated compound was added (50 μL/well) followed by PBMCs diluted at 3-4 million cells/mL (150 μL/well). Plates were incubated for 24 h and the supernatants collected for Mesoscale IL-2 analysis. IL-2 activity is measured as fold difference from the DMSO control.
In Table 7, the fold-change values are reported as “A”, “B”, “C”, or “D”. “A” represents a fold-change value of equal to or less than 1 (value≤1); “B” represents a fold-change value of more than 1 and equal to or less than 2 (1<value≤2); “C” represents a fold-change value of more than 2 and equal to or less than 3 (2<value≤3); and “D” represents a fold-change value of more than 3 (value>3).

For the next experiment, the system named is MOLM-13 cells. The experiment can be described thus: MOLM-13 cell viability assay (CellTiter-Glo 2, 3 days, 2500 cells/well). The following applies: Homo sapiens, MOLM-13, 72 h, percentage of DMSO control. The protocol: MOLM-13 cells were cultured in RPMI 1640 media supplemented with 10% fetal bovine serum, streptomycin and penicillin, and were plated in white walled 96-well plates at 2500 cells/well. Cells were incubated in DMSO (control) or the indicated compound for 3 days at 37° C. and 5% CO2. Following the incubation period, 100 μL of CellTiterGlow2 (CTG2) reagent (CellTiter-Glo®2 Luminescent Cell Viability Assay, Promega (Madison, Wis.)) was added to each well. Following a 10 minutes incubation with shaking, luminescence was measured using the EnVision Multimode plate reader.
The MOLM-13 cell viability values, measured as percentages of the DMSO control, are reported in Table 8 as “A”, “B”, “C”, or “D.” “A” represents a % viability value of less than 40% (value<40%). “B” represents a % viability value of equal to or more than 40% and less than 60% (40%≤value<60%). “C” represents a % viability value of equal to or more than 60% and less than 90% (60%≤value<90%). “D” represents a % viability value of equal or more than 90% (value≥90%).
A general note: ATP-based viability assays read luminescence as a measure of living cells.

T2 sequence (P15170 whole entry): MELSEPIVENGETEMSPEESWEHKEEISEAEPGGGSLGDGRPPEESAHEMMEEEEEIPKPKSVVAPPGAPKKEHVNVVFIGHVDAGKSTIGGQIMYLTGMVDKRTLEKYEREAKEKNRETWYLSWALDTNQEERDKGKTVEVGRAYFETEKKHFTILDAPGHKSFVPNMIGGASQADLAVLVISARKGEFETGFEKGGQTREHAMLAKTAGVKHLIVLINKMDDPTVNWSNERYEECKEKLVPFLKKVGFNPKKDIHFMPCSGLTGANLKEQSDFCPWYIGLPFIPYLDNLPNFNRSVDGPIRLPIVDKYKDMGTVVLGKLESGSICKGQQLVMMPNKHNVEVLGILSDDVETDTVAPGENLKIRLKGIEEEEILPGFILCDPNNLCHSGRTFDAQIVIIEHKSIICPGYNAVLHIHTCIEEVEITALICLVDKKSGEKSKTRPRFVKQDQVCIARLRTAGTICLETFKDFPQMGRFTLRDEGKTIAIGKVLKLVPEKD
T2 sequence (Q96SW2 whole entry): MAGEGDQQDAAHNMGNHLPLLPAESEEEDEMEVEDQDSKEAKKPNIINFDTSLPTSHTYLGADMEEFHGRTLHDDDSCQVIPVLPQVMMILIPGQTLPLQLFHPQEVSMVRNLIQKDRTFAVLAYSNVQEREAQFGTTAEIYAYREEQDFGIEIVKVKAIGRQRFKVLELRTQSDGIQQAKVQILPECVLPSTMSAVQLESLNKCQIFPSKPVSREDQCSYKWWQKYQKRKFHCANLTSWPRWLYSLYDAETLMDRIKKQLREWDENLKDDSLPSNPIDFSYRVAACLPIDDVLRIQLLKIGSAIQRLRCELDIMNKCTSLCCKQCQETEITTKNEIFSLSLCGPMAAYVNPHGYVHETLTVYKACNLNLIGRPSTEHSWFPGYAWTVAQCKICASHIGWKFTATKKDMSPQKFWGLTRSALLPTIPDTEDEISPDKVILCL
T2 sequence (Q16531 whole entry partner): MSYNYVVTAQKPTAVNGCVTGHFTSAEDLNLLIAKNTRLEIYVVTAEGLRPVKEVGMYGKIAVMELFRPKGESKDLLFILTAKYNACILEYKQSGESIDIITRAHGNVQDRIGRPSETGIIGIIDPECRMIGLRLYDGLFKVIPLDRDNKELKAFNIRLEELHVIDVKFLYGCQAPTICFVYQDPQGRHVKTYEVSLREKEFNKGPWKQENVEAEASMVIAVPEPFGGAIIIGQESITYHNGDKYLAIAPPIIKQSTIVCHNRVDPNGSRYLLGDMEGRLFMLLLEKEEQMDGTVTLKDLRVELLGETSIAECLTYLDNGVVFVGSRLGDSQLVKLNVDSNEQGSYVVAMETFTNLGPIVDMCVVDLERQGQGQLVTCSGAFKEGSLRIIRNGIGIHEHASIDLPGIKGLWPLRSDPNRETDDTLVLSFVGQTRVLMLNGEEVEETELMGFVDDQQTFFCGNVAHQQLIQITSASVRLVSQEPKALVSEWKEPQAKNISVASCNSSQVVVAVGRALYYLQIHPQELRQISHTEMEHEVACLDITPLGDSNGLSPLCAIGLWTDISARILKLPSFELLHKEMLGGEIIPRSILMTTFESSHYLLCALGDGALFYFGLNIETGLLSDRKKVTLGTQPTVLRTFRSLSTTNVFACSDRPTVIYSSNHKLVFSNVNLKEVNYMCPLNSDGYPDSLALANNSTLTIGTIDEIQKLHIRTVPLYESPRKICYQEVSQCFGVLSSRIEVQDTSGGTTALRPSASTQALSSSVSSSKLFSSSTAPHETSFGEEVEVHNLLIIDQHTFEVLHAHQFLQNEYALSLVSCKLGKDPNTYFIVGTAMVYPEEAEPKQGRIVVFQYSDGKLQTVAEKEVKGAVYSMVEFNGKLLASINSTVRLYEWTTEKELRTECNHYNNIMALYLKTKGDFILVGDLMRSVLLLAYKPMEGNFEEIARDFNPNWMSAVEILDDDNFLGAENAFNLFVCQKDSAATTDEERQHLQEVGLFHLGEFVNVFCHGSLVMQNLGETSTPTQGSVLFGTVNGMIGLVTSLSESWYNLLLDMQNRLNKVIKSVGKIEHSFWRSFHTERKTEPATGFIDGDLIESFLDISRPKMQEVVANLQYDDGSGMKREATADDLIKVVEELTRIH
T1 sequence (Q13422 whole entry): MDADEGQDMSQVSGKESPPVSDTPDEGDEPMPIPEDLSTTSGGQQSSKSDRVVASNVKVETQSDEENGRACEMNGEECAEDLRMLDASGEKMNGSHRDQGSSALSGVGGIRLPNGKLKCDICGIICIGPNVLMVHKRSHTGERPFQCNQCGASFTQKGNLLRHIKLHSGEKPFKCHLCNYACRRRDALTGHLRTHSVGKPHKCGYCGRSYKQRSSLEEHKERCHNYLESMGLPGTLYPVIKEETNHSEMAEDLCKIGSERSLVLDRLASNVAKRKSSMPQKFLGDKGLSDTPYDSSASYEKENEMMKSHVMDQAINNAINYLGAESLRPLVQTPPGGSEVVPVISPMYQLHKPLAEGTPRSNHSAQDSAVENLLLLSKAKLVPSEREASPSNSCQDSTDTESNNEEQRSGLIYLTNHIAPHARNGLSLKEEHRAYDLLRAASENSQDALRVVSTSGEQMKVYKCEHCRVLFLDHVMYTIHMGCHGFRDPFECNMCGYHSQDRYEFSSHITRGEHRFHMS
T1 sequence (Q96SW2 whole entry): as the sequence (Q96SW2 whole entry) above
T1 sequence (Q16531 whole entry partner): as the sequence (Q16531 whole entry partner) above

In general, inhibition refers to the relative decrease from the control value, in per cent. Lower therefore signals a weak effect. One may read the fold induction as the ratio of treated to control signal. Read a high fold induction as a strong induction. What is called viability is a per cent measure of how many cells are alive, often set against a control. Low readings indicate a greater loss of cells, high ones better survival. In the case of `Cc1ccc(NCC(=O)NCc2scc3c2CN(C2CCC(=O)NC2=O)C3=O)cc1N(C)C` (stereo not drawn) [Compound 4, 2-((3-(dimethylamino)-4-methylphenyl)amino)-N-((5-(2,6-dioxopiperidin-3-yl)-4-oxo-5,6-dihydro-4H-thieno[3,4-c]pyrrol-1-yl)methyl)acetamide], the “IKAROS % Degradation at 1 μM” value on IKAROS is “B (a % degradation value of equal to or more than 25% and less than 50% (25%≤value<50%))”. Besides, on GSPT1, the “GSPT1 % Degradation at 1 μM” value was “B (a % degradation value of equal to or more than 25% and less than 50% (25%≤value<50%))”. In addition, the inhibition at 1 µM with IL-1β and in the experiment with TNFα was 50 to 75% in each case. This compound gave a fold induction at 1 µM in the experiment on IL-2 of 2 to 3. This compound came in with a viability at 1 µM in the experiment on MOLM-13 cells above 90%.
Regarding `O=C(CNc1ccc(CN2CCOCC2)cc1)NCc1scc2c1CN(C1CCC(=O)NC1=O)C2=O` (stereo not drawn) [Compound 9, N-((5-(2,6-dioxopiperidin-3-yl)-4-oxo-5,6-dihydro-4H-thieno[3,4-c]pyrrol-1-yl)methyl)-2-((4-(morpholinomethyl)phenyl)amino)acetamide], the inhibition at 1 µM in the experiment on IL-1β and in the experiment on TNFα was 50 to 75% throughout. For the same compound, the fold induction at 1 µM in the experiment with IL-2 is 1 to 2.
For the compound `Cc1ccc(NC(C)C(=O)NCc2scc3c2CN(C2CCC(=O)NC2=O)C3=O)cc1Cl` (stereo not drawn) [Compound 7, 2-((3-chloro-4-methylphenyl)amino)-N-((5-(2,6-dioxopiperidin-3-yl)-4-oxo-5,6-dihydro-4H-thieno[3,4-c]pyrrol-1-yl)methyl)propanamide], the inhibition at 1 µM in the experiment with IL-1β and in the experiment on TNFα was above 75% in each case. Besides, in the experiment on IL-2, the fold induction at 1 µM was 2 to 3.
For `O=C(CNc1cccc(CN2CCOCC2)c1)NCc1scc2c1CN(C1CCC(=O)NC1=O)C2=O` (stereo not drawn) [Compound 11, N-((5-(2,6-dioxopiperidin-3-yl)-4-oxo-5,6-dihydro-4H-thieno[3,4-c]pyrrol-1-yl)methyl)-2-((3-(morpholinomethyl)phenyl)amino)acetamide], the “IKAROS % Degradation at 1 μM” value on IKAROS is “B (a % degradation value of equal to or more than 25% and less than 50% (25%≤value<50%))”. For the same compound, the “GSPT1 % Degradation at 1 μM” value on GSPT1 was “B (a % degradation value of equal to or more than 25% and less than 50% (25%≤value<50%))”. For the same compound, the inhibition at 1 µM with IL-1β and in the experiment on TNFα was 30 to 50% in each case. Moreover, the fold induction at 1 µM with IL-2 fell in the range of 1 to 2. In the experiment with MOLM-13 cells, this compound showed a viability at 1 µM below 40%.
As for `Cc1ccc(NC(C)C(=O)NCc2ccc3c(c2)CN(C2CCC(=O)NC2=O)C3=O)cc1Cl` (stereo not drawn) [Compound 15, 2-((3-chloro-4-methylphenyl)amino)-N-((2-(2,6-dioxopiperidin-3-yl)-1-oxoisoindolin-5-yl)methyl)propanamide], in the experiment with IL-2, the fold induction at 1 µM was in the range of 1 to 2.
`Cc1ccc(NCC(=O)NCc2ccc3c(c2)CN([C@H]2CCCC(=O)NC2=O)C3=O)cc1Cl` [Compound 12]: on GSPT1, the “GSPT1 % Degradation at 1 μM” value is “C (a % degradation value of equal to or more than 50% and less than 75% (50%≤value<75%))”. Also, the inhibition at 1 µM in the experiment on IL-1β and in the experiment with TNFα was below 30% throughout. Moreover, the fold induction at 1 µM with IL-2 lay in the range of 1 to 2.
Take `CN(C)c1ccc(NCC(=O)NCc2scc3c2CN(C2CCC(=O)NC2=O)C3=O)cc1Cl` (stereo not drawn) [Compound 8, 2-((3-chloro-4-(dimethylamino)phenyl)amino)-N-((5-(2,6-dioxopiperidin-3-yl)-4-oxo-5,6-dihydro-4H-thieno[3,4-c]pyrrol-1-yl)methyl)acetamide]: the inhibition at 1 µM with IL-1β and in the experiment on TNFα was above 75% each time. The compound also gave a fold induction at 1 µM in the experiment on IL-2 of 1 to 2.
`Cc1ccc(NCC(=O)NCc2scc3c2CN(C2CCC(=O)NC2=O)C3=O)cc1Cl` (stereo not drawn) [Compound 2, 2-((3-chloro-4-methylphenyl)amino)-N-((5-(2,6-dioxopiperidin-3-yl)-4-oxo-5,6-dihydro-4H-thieno[3,4-c]pyrrol-1-yl)methyl)acetamide]: on IKAROS, the “IKAROS % Degradation at 1 μM” value was “D (a % degradation value of equal to or more than 75% (value≥75%))”. In addition, on GSPT1, the “GSPT1 % Degradation at 1 μM” value is “C (a % degradation value of equal to or more than 50% and less than 75% (50%≤value<75%))”. Also, the values for the inhibition at 1 µM in the experiment on IL-1β and in the experiment with TNFα were above 75% and 50 to 75%, respectively. The same compound registered a fold induction at 1 µM in the experiment with IL-2 of 1 to 2. In the experiment with MOLM-13 cells, this compound returned a viability at 1 µM above 90%.
Turning to `Cc1ccc(NCC(=O)NCc2ccc3c(c2)C(=O)N(C2CCC(=O)NC2=O)C3=O)cc1Cl` (stereo not drawn) [Compound 19, 2-((3-chloro-4-methylphenyl)amino)-N-((2-(2,6-dioxopiperidin-3-yl)-1,3-dioxoisoindolin-5-yl)methyl)acetamide], the “IKAROS % Degradation at 1 μM” value on IKAROS was “B (a % degradation value of equal to or more than 25% and less than 50% (25%≤value<50%))”. Moreover, the “GSPT1 % Degradation at 1 μM” value on GSPT1 is “D (a % degradation value of equal to or more than 75% (value≥75%))”. Further, the inhibition at 1 µM with TNFα lay within 30 to 50%. In the experiment with IL-2, this compound had a fold induction at 1 µM of at most 1. For the same compound, the viability at 1 µM with MOLM-13 cells was in the range of 60 to 90%.
Consider `Cc1cc(NCC(=O)NCc2ccc3c(c2)CN(C2CCC(=O)NC2=O)C3=O)ccc1N1CCOCC1` (stereo not drawn) [Compound 23, N-((2-(2,6-dioxopiperidin-3-yl)-1-oxoisoindolin-5-yl)methyl)-2-((3-methyl-4-morpholinophenyl)amino)acetamide], for which the “IKAROS % Degradation at 1 μM” value on IKAROS was “C (a % degradation value of equal to or more than 50% and less than 75% (50%≤value<75%))”. Moreover, on GSPT1, the “GSPT1 % Degradation at 1 μM” value was “B (a % degradation value of equal to or more than 25% and less than 50% (25%≤value<50%))”. For the same compound, the inhibition at 1 µM with IL-1β and in the experiment on TNFα was 30 to 50% each time. In addition, the fold induction at 1 µM with IL-2 fell in the range of 1 to 2. In the experiment with MOLM-13 cells, the viability at 1 µM lay within 40 to 60%.
On to `O=C(CNc1ccc(N2CCOCC2)c(Cl)c1)NCc1ccc2c(c1)CN(C1CCC(=O)NC1=O)C2=O` (stereo not drawn) [Compound 22, 2-((3-chloro-4-morpholinophenyl)amino)-N-((2-(2,6-dioxopiperidin-3-yl)-1-oxoisoindolin-5-yl)methyl)acetamide], for which the inhibition at 1 µM with IL-1β and with TNFα was 50 to 75% in each case. The compound further showed a fold induction at 1 µM with IL-2 of 2 to 3.
Consider `Cc1ccc(NCC(=O)NCc2cc3c(s2)CN(C2CCC(=O)NC2=O)C3=O)cc1Cl` (stereo not drawn) [Compound 6, 2-((3-chloro-4-methylphenyl)amino)-N-((5-(2,6-dioxopiperidin-3-yl)-4-oxo-5,6-dihydro-4H-thieno[2,3-c]pyrrol-2-yl)methyl)acetamide], for which the inhibition at 1 µM in the experiment with IL-1β and in the experiment with TNFα was below 30% throughout.
